Results on 6 molecules are retold here after US20090012046A1, “Methods of Treating Mutated Hiv” (priority 2006, published 2009).

Where “and” joins values, the source holds several entries; their conditions need not be identical. Equal values may be shown once. Where a name gives a salt, the structure may show the parent alone.

Type in all cases: cell-based
The subject of test [1] is HIV-1 strain with RT mutation K065R. Description: Susceptibility of site-directed mutant strain. As to conditions: SDM strain K065R. From the text:
(§1) Site-directed mutant RT coding sequences were generated from a pGEM vector containing the HIV-1 clone HXB2 protease and RT coding sequence by using a QuikChange™ site-directed mutagenesis kit, and HPLC-purified primers. Plasmids were sequenced to confirm that they contained the desired mutations. Mutant viruses were created by recombination of the mutant protease-RT sequence with a protease-RT deleted HIV-1 HXB2 proviral clone^2.

For test [2], the system named is HIV-1 strain with RT mutation K103N. Description: Susceptibility of site-directed mutant strain. The note with it: SDM strain K103N.
From the text: as §1

Test [3] has as its system HIV-1 strain with RT mutation M184V. The test can be described thus: Susceptibility of site-directed mutant strain. The note with it: SDM strain M184V.
From the text: as §1

The subject of test [4] is HIV-1 strain with RT mutation Y115F. Description: Susceptibility of site-directed mutant strain. The note with it: SDM strain Y115F.
From the text: as §1

The subject of test [5] is HIV-1 strain with RT mutation Y181C. Description: Susceptibility of site-directed mutant strain. As to conditions: SDM strain Y181C.
From the text: as §1

Test [6] concerns HIV-1 strain with RT mutation Y188L. The test can be described thus: Susceptibility of site-directed mutant strain. The note with it: SDM strain Y188L.
From the text: as §1

For test [7], the system named is HIV-1 strain with RT mutations F227C L234I. The test can be described thus: Susceptibility of site-directed mutant strain. The note with it: SDM strain F227C L234I.
From the text: as §1

Test [8] has as its system HIV-1 strain with RT mutations K065R M184V. Description: Susceptibility of site-directed mutant strain. As to conditions: SDM strain K065R M184V.
From the text: as §1

Test [9] deals with HIV-1 strain with RT mutations K101E K103N. Description: Susceptibility of site-directed mutant strain. The note with it: SDM strain K101E K103N.
From the text: as §1

Test [10] relates to HIV-1 strain with RT mutations K103N Y181C. The test can be described thus: Susceptibility of site-directed mutant strain. As to conditions: SDM strain K103N Y181C.
From the text: as §1

Test [11] deals with HIV-1 strain with RT mutations L100I K103N E138G V179I Y181C. Description: Susceptibility of site-directed mutant strain. The note with it: SDM strain L100I K103N E138G V179I Y181C.
From the text: as §1

In test [12] the test system is HIV-1 strain with RT mutations L100I K103N. The test can be described thus: Susceptibility of site-directed mutant strain. The note with it: SDM strain L100I K103N.
From the text: as §1

In test [13] the test system is HIV-1 strain with RT mutations M041L D067N K070R T215Y. The test can be described thus: Susceptibility of site-directed mutant strain. As to conditions: SDM strain M041L D067N K070R T215Y.
From the text: as §1

The subject of test [14] is HIV-1 strain with RT mutations T069S ins069-070S-S L210W T215Y. Description: Susceptibility of site-directed mutant strain. As to conditions: SDM strain T069S ins069-070S-S L210W T215Y.
From the text: as §1

Test [15] has as its system HIV-1 strain with RT mutations Y115F M184V. Description: Susceptibility of site-directed mutant strain. As to conditions: SDM strain Y115F M184V.
From the text: as §1

Test [16] concerns HIV-2 (ROD). Description: Susceptibility of HIV-2 strain.
For test [17], the system named is HIV-1 IIIB. Description: In vitro selection of viral strains resistant to RT inhibitors in MT4-LTR-EGFP cells. As to conditions: NcRTI-1: prolonged exposure (190 days). From the text: To in vitro select viral strains resistant to RT inhibitors, MT4-LTR-EGFP cells were infected in the presence of the inhibitor (at 2 or 3 times EC50). Cultures were passaged every 3 to 4 days at the same concentration of inhibitor, until full virus breakthrough. At that time, virus was harvested and used for a new round of selection at a higher compound concentration. At each breakthrough, the harvested virus was genotyped to identify acquired mutations. For several RT inhibitors, alone or in combination, the mutations selected when replicating wild type HIV-1 (IIIB) in their presence, were determined (see Table 3).

Test [18] deals with clinical HIV-1 isolates. Description: Susceptibility of recombinant clinical HIV-1 isolates to RT inhibitors (fold change in EC50). Here is the method:
The susceptibility of over 6000 recent clinical HIV-1 isolates for NcRTI-1 and different N(t)RTIs and NNRTIs was assessed.
Recombinant HIV-1 viruses, derived from clinical samples, were constructed by cotransfection of MT4 cells with sample derived viral protease and RT coding sequences and an HIV-1 HXB2-derived proviral clone deleted in the protease and RT coding region^2.

Test [19] concerns HIV-1 strain with RT mutations A62V V75I F77L F116Y Q151M. Description: Susceptibility of site-directed mutant strain. The note with it: SDM strain A62V V75I F77L F116Y Q151M.
From the text: as §1

The mark [20] stands for this setting: over 6000 recent clinical HIV-1 isolates.

For `Nc1ccn([C@@H]2CS[C@H](CO)O2)c(=O)n1` [3TC, lamivudine], the Fold change in test [1] was >20; in test [2], 1.1; in test [3], >100; in [4], 0.7; in test [5], 1.1; in test [6], 1.9. Further, the Fold change in test [7] is listed as 1.1; in [8], >100; in test [9] it was 1.3; in test [10], 0.9; in test [11], 0.7; in [12], 0.5. Besides, the Fold change was 8.1 in [13], 9.5 in test [14], >100 in test [15] and 0.6 in test [16].

With `Nc1nc(=O)n([C@@H]2CS[C@H](CO)O2)cc1F` [FTC, emtricitabine], in [17], the “selection of the K65R mutation when combined with TDF” value is recorded as “the K65R mutation was selected”.

In the case of `Cc1ccnc2c1NC(=O)c1cccnc1N2C1CC1` [NVP, nevirapine], the Fold change in test [1] is 3.4; in test [2], 50; in [3], 2.3; in [4] it was 2.9; in [5], >100; in [6], >100. Besides, the Fold change in test [7] is reported as 31; in [8], 1.2; in test [9], >100; in test [10] it was >100; in test [11] it was >100; in test [12], >100. Besides, the Fold change in [13] is 2.8; in [14] it was 1.1; in test [15] it was 2.3; in [16], >100.

With `Cn1c2ccccc2c2c1cc(C#N)c(=O)n2-c1ccc([N+](=O)[O-])cc1` [NcRTI-1, 5-Methyl-1-(4-nitro-phenyl)-2-oxo-2,5-dihydro-1H-pyrido[3,2-b]indole-3-carbonitrile], the “effect of NNRTI resistance mutations and N(t)RTI multi-drug resistant patterns (TAMs, T69 insertion complex, Q151M complex) on activity” value in test [18] is listed as “not affected”. Besides, the “cross-resistance with the NNRTIs EFV or NVP and the N(t)RTIs ZDV, TDF, ABC” value in [18] (clinical HIV-1 isolates) is “No cross-resistance was observed”. Moreover, the “effect of the K65R mutation on susceptibility” value in test [18] (clinical isolates with K65R) is “hypersusceptibility”. The “FC (fold change in EC50)” value in test [18] (clinical isolates with combination of mutations M184V+Y115F, random set of more than 1700 isolates) is 75. Besides, the “profiled clinical isolates showing resistance (FC>10)” value in test [18] (setting [20]) came out at 2.3%. Moreover, the “profiled clinical isolates that remained susceptible (fold change in EC50 (FC)<4)” value in test [18] (setting [20]) turned out to be 82%. Moreover, in [18] (setting [20]), the “profiled clinical isolates with reduced susceptibility (FC4-10)” value is recorded as 15.7%. Besides, the Fold change in test [1] was 0.46 and 0.5; in test [2], 1.9; in test [3] it was 5.0; in [4], 7.9; in test [5], 2.3; in test [6] it was 1.7. Moreover, the Fold change in [19] was 1.0; in test [7], 2.0; in test [8], 0.89 and 0.9; in [9], 2.1; in test [10], 2.1; in test [11] it was 2.5. The Fold change in test [12] is 2.6; in [13], 3.8; in [14] it was 0.9; in [15] it was 75; in test [16] it was 14. Further, in [17], the “selection of the K65R mutation when combined with TDF” value is listed as “did not result in selection of the K65R mutation”.

With `CC(C)OC(=O)OCOP(=O)(CO[C@H](C)Cn1cnc2c(N)ncnc21)OCOC(=O)OC(C)C` [TDF, tenofovir disoproxil fumarate], the Fold change in test [1] is 6.0; in test [2], 0.6; in [3], 0.8; in test [4], 1.0; in [5], 0.7; in test [6], 0.7. Besides, the Fold change in test [19] turned out to be 3.7; in test [7] it was 0.6; in [8], 2.3; in test [9], 0.5; in test [10], 0.5; in test [11] it was 0.4. Besides, the Fold change is recorded as 0.3 in test [12]; 3.3 in test [13]; 2.3 in [14]; 0.9 in test [15]; 1.0 in test [16].

`Cc1cn([C@H]2C[C@H](N=[N+]=[N-])[C@@H](CO)O2)c(=O)[nH]c1=O` [ZDV, zidovudine] had a Fold change in test [16] of 0.1.
